Reference: article PMC10404700, “A new member of the flavodoxin superfamily from Fusobacterium nucleatum that functions in heme trafficking and reduction of anaerobilin” (The Journal of Biological Chemistry, 2023)

Biological target: T1, FldH (Fusobacterium nucleatum, UniProt Q8RI14)
T1 construct: gene FN1822; full-length, 169 residues, N-terminal His6 tag (pET15b) cut with thrombin; expressed in E. coli BL21(DE3)pLysS; monomer
Assay: X-ray crystal structure, […] A
Format: binding
Conditions: heme-bound protein; FMN copurified

T1 sequence (Q8RI14 entry or part of it): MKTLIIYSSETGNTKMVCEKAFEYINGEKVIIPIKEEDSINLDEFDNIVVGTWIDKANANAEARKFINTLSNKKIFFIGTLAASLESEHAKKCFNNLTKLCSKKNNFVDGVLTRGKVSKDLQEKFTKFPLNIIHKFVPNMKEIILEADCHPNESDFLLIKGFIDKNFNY

## Cc1cc2nc3c(=O)[nH]c(=O)nc-3n(C[C@H](O)[C@H](O)[C@H](O)COP(=O)(O)O)c2cc1C [FMN]
  X-ray crystal structure, 1.6 A: The FMN cofactor is situated at the carboxyl-terminal end of the β-parallel sheet
